{
  "source": "patent US7834007B2",
  "about": "“CGRP antagonists” (Bristol-Myers Squibb Company, priority 2005, dated 2010)",
  "target": "T1, CGRP receptor (Homo sapiens, UniProt O60894+Q16602)",
  "T1 construct": "endogenous in cells; host or cells: SK-N-MC cells (membrane homogenate)",
  "T1 sequence (Q16602 23-461)": "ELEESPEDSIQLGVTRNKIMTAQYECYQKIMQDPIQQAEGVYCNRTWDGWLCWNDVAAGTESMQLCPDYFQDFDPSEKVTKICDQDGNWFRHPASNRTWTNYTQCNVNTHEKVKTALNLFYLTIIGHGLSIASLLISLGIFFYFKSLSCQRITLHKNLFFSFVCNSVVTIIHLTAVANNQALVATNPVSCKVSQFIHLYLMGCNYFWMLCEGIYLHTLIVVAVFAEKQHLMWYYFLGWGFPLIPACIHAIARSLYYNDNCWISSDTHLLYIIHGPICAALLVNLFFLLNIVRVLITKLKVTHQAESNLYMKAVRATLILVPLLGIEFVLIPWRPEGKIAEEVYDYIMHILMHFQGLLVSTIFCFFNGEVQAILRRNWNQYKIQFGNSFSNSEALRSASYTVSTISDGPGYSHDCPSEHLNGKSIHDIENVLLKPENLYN",
  "T1 sequence (O60894 27-148)": "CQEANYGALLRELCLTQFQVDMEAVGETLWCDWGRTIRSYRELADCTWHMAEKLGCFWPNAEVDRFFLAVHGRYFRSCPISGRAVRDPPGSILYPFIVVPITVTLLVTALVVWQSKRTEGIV",
  "experiment": "CGRP radioligand binding assay ([125I]-CGRP displacement, SK-N-MC cell homogenate)",
  "details": "displacement of 50% of [125I]-CGRP binding, room temperature 2 h",
  "experimental": "CGRP radioligand binding assay. Tissue Culture. SK-N-MC cells were grown at 37° C. in 5% CO2 as a monolayer in medium consisting of MEM with Earle's salts and L-glutamine (Gibco) supplemented with 10% fetal bovine serum (Gibco).\nCell Pellets. The cells were rinsed twice with phosphate-buffered saline (155 mM NaCl, 3.3 mM Na2HPO4, 1.1 mM KH2PO4, pH 7.4), and incubated for 5-10 min. at 4° C. in hypotonic lysis buffer consisting of 10 mM Tris (pH 7.4) and 5 mM EDTA. The cells were transferred from plates to polypropylene tubes (16×100 mm) and homogenized using a polytron. Homogenates were centrifuged at 32,000×g for 30 min. The pellets were resuspended in cold hypotonic lysis buffer with 0.1% mammalian protease inhibitor cocktail (Sigma) and assayed for protein concentration. The SK-N-MC homogenate was then aliquoted and stored at −80° C. until needed.\nBinding Assay. The compounds of invention were solubilized and carried through serial dilutions using 100% DMSO. Aliquots from the compound serial dilutions were further diluted 25 fold into assay buffer (50 mM Tris-Cl pH 7.5, 5 mM MgCl2, 0.005% Triton X-100) and transferred (volume 50 μl) into 96 well assay plates. [^125I]-CGRP (Amersham Biosciences) was diluted to 60 pM in assay buffer and a volume of 50 μl was added to each well. SK-N-MC pellets were thawed, diluted in assay buffer with fresh 0.1% mammalian protease inhibitor cocktail (Sigma), and homogenized again. SK-N-MC homogenate (5 μg/well) was added in a volume of 100 μl. The assay plates were then incubated at room temperature for 2 h. Assays were stopped by addition of excess cold wash buffer (20 mM Tris-Cl pH 7.5, 0.1% BSA) immediately followed by filtration over glass fiber filters (Whatman GF/B) previously soaked in 0.5% PEI. Non-specific binding was defined with 1 μM beta-CGRP. Protein bound radioctivity was determined using a gamma or scintillation counter. The IC50 was defined as the concentration of a compound of invention required to displace 50% of radioligand binding. Results are tabulated in Table 1 as follows: 0.01 nM≦A≦10 nM; 10 nM<B≦100 nM; 100 nM<C≦1000 nM; D>1000 nM.",
  "data": [
    {"smiles": "Cc1cc(C[C@@H](NC(=O)N2CCC(c3cc4ccccc4[nH]c3=O)CC2)C(=O)N[C@@H](CCCCN)C(=O)N2CCN(c3ccncc3)CC2)cc2cn[nH]c12", "note": "[Example 2, N-((R)-1-((S)-6-amino-1-oxo-1-(4-(pyridin-4-yl)piperazin-1-yl)hexan-2-ylamino)-3-(7-methyl-1H-indazol-5-yl)-1-oxopropan-2-yl)-4-(2-oxo-1,2-dihydroquinolin-3-yl)piperidine-1-carboxamide]", "values": [
      {"measurement": "IC50", "value": "0.01 to 10", "unit": "nM"}
    ]},
    {"smiles": "Cc1cc(C[C@@H](NC(=O)N2CCC(N3Cc4ccccc4NC3=O)CC2)C(=O)N[C@@H](CCCCNC(=O)OC(C)(C)C)C(=O)N2CCN(c3ccncc3)CC2)cc2cn[nH]c12", "note": "[Example 3, tert-Butyl (S)-5-((R)-3-(7-methyl-1H-indazol-5-yl)-2-(4-(2-oxo-1,2-dihydroquinazolin-3(4H)-yl)piperidine-1-carboxamido)propanamido)-6-oxo-6-(4-(pyridin-4-yl)piperazin-1-yl)hexylcarbamate]", "values": [
      {"measurement": "IC50", "value": "0.01 to 10", "unit": "nM"}
    ]},
    {"smiles": "Cc1cc(C[C@@H](NC(=O)N2CCC(N3Cc4ccccc4NC3=O)CC2)C(=O)N[C@@H](CCCCN)C(=O)N2CCN(c3ccncc3)CC2)cc2cn[nH]c12", "note": "[Example 4, N-((R)-1-((S)-6-Amino-1-oxo-1-(4-(pyridin-4-yl)piperazin-1-yl)hexan-2-ylamino)-3-(7-methyl-1H-indazol-5-yl)-1-oxopropan-2-yl)-4-(2-oxo-1,2-dihydroquinazolin-3(4H)-yl)piperidine-1-carboxamide]", "values": [
      {"measurement": "IC50", "value": "0.01 to 10", "unit": "nM"}
    ]},
    {"smiles": "Cc1cc(C[C@@H](NC(=O)N2CCC(c3cc4ccccc4[nH]c3=O)CC2)C(=O)N[C@@H](CCCCN)C(=O)N2CCC(N3CCCCC3)CC2)cc2cn[nH]c12", "note": "[Example 5, N-((R)-1-((S)-6-amino-1-oxo-1-(4-(piperidin-1-yl)piperidin-1-yl)hexan-2-ylamino)-3-(7-methyl-1H-indazol-5-yl)-1-oxopropan-2-yl)-4-(2-oxo-1,2-dihydroquinolin-3-yl)piperidine-1-carboxamide]", "values": [
      {"measurement": "IC50", "value": "0.01 to 10", "unit": "nM"}
    ]},
    {"smiles": "Cc1cc(C[C@@H](NC(=O)N2CCC(c3cc4cccc(F)c4[nH]c3=O)CC2)C(=O)N[C@@H](CCCCN)C(=O)N2CCN(c3ccncc3)CC2)cc2cn[nH]c12", "note": "[Example 6, N-((R)-1-((S)-6-amino-1-oxo-1-(4-(pyridin-4-yl)piperazin-1-yl)hexan-2-ylamino)-3-(7-methyl-1H-indazol-5-yl)-1-oxopropan-2-yl)-4-(8-fluoro-2-oxo-1,2-dihydroquinolin-3-yl)piperidine-1-carboxamide]", "values": [
      {"measurement": "IC50", "value": "0.01 to 10", "unit": "nM"}
    ]},
    {"smiles": "Cc1cc(C[C@@H](NC(=O)N2CCC(c3cc4cccnc4[nH]c3=O)CC2)C(=O)N[C@@H](CCCCN)C(=O)N2CCN(c3ccncc3)CC2)cc2cn[nH]c12", "note": "[Example 7, N-((R)-1-((S)-6-amino-1-oxo-1-(4-(pyridin-4-yl)piperazin-1-yl)hexan-2-ylamino)-3-(7-methyl-1H-indazol-5-yl)-1-oxopropan-2-yl)-4-(2-oxo-1,2-dihydro-1,8-naphthyridin-3-yl)piperidine-1-carboxamide]", "values": [
      {"measurement": "IC50", "value": "0.01 to 10", "unit": "nM"}
    ]},
    {"smiles": "Cc1cc(C[C@@H](NC(=O)N2CCC(c3cc4ccccc4[nH]c3=O)CC2)C(=O)N[C@@H](CCCCNC(=O)OC(C)(C)C)C(=O)N2CCN(c3ccncc3)CC2)cc2oc(=O)[nH]c12", "note": "[Example 8, tert-Butyl (S)-5-((R)-3-(4-methyl-2-oxo-2,3-dihydrobenzo[d]oxazol-6-yl)-2-(4-(2-oxo-1,2-dihydroquinolin-3-yl)piperidine-1-carboxamido)propanamido)-6-oxo-6-(4-(pyridin-4-yl)piperazin-1-yl)hexylcarbamate]", "values": [
      {"measurement": "IC50", "value": "0.01 to 10", "unit": "nM"}
    ]},
    {"smiles": "Cc1cc(C[C@@H](NC(=O)N2CCC(N3Cc4cccc(F)c4NC3=O)CC2)C(=O)N[C@@H](CCCCNC(=O)OC(C)(C)C)C(=O)N2CCN(c3ccncc3)CC2)cc2nn[nH]c12", "note": "[Example 9, tert-Butyl (S)-5-((R)-2-(4-(8-fluoro-2-oxo-1,2-dihydroquinazolin-3(4H)-yl)piperidine-1-carboxamido)-3-(7-methyl-1H-benzo[d][, 2,3]triazol-5-yl)propanamido)-6-oxo-6-(4-(pyridin-4-yl)piperazin-1-yl)hexylcarbamate]", "values": [
      {"measurement": "IC50", "value": "0.01 to 10", "unit": "nM"}
    ]}
  ]
}
